In patent publication US20090221024A1, “T CELL ASSAYS” (ANTITOPE LIMITED, priority 2006, published 2009):

How the values were obtained:
[1] = system: CD8^+ CD25^hi T cell depleted PBMC; assay: Timecourse T cell proliferation assay, bulk cultures of CD8+ CD25hi T cell depleted PBMC; type: cell-based, human
Experimental: Wild type (WT) and T cell epitope depleted peptides ([…] and […], respectively) derived from human sTNFR1 sequence were synthesized (Pepscan Systems, Leystad, Netherlands) and tested using the method of example 1 in which CD8^+ CD25^hi T cell depleted PBMC were used to compare peptides derived from sTNFR-1 for the capacity to stimulate T cell responses from twenty healthy donors. Bulk cultures were established by adding 1 ml of 2-4×10^6/ml CD8^+ CD25^hi T cell depleted PBMC in AIM V culture medium to each well of a 24 well plate (Greiner Bio-One, Frickenhausen, Germany). Each peptide was tested separately against each donor by adding 1 ml 10 μM peptide to each bulk culture (final concentration of 5 μM for a 2 ml per bulk culture). For comparison, additional bulk cultures were established for untreated and positive (KLH) controls. Replicate samples (of T blasts) were removed from bulk cultures on days 6-9 and proliferation was assessed in 96 round bottom plates The data were used to assess the magnitude and kinetics of T cell responses to each peptide on days 6, 7, 8 and 9 post stimulation. In addition, the same twenty healthy donors used in the time course proliferation assay were tested for IL-2 production after 8 days culture with the TNFR1 peptides using the IL-2 Elispot assay. Elispot plates were pre-wet with 70% ethanol then coated with IL-2 capture antibody (R&D systems, Minneapolis, USA) overnight at 4° C. The plates were washed twice with PBS (Invitrogen, Paisley, UK) then blocked in 1% BSA/PBS for 2 hours at room temperature. The plates were washed in PBS prior to the addition of CD8^+ CD25^hi T cell depleted PBMC at 4×10^5 cells per well and test samples at a final concentration of 5 μM. After 7 days at 37° C./5% CO2, the plates were developed. After washing with first water then PBS, IL-2 detection antibody (R&D systems, Minneapolis, USA) in PBS/1% BSA was added for 2 hours at 37° C. After further washing with PBS, streptavadin-AP (R&D systems, Minneapolis, USA) was added for 1.5 hours, the plates washed again then BCIP/NBT chromagen (R&D systems, Minneapolis, USA) added for 30 minutes. The plates were washed with water, dried then spot counts analysed using the Immunospot Elispot analyzer, software version 3 (Cleveland, Ohio, USA).
Wild type (WT) and mutant T cell epitope depleted human sTNFR1 proteins were prepared as human Fc fusion proteins as described in WO/2004/113387 with the epitope-depleted protein having mutations I10Q, T20R, H23P, L56A, L108T, L110H and L149D. Proliferation and IL-2 Elispot assays were performed as in example 2 except that 1 ml of sTNFR1 proteins were added to a final concentration of 10 μg/ml.
Carbamazepine (Novartis Pharmaceuticals UK) and an N-acetyl iminostilbene (an analogue of carbamazepine, synthesized according to Ying et al Journal of Allergy and Clinical Immunology 2006; 118:233-241) were compared for the ability to stimulate T cell responses in a panel of healthy donors. Both compounds were tested at 25 μg/ml in separate bulk cultures for each donor according to the method of example 2. Briefly, bulk cultures were established using 2-4×10^6 CD8^+ CD25^hi T cell depleted PBMC in each well of a 24 well plate. Replicate samples (of T blasts) are removed from bulk cultures on days 5-8 and proliferation was assessed in 96 well plates. The data were used to assess the magnitude and kinetics of T cell responses to each compound.
As for example 2, a SI≧2 was used as a threshold for positive responses and data was further analyzed to determine the coefficient of variance (CV), standard deviation (SD) and significance (p<0.05) using parametric and non-parametric statistical analysis. Any given compound was considered to be immunogenic only if the response is statistically significant (p<0.05) with an SI≧2.

[2] = system: patients; conditions: known; cited from earlier work
[3] = system: CD8^+ CD25^hi depleted PBMC; assay: T cell proliferation assay (3HTdR) with whole CD8+ depleted vs CD8+ CD25hi depleted PBMC; type: cell-based, human; conditions: peptides previously scored borderline or negative; SI≧2 threshold
[4] = system: CD8^+ CD25^hi T cell depleted PBMC; assay: IL-2 Elispot assay with CD8+ CD25hi T cell depleted PBMC; type: cell-based, human; conditions: 5 μM peptide, twenty healthy donors, SI threshold of 2, p<0.05; donors 3, 8 and 11
Experimental: Wild type (WT) and T cell epitope depleted peptides ([…] and […], respectively) derived from human sTNFR1 sequence were synthesized (Pepscan Systems, Leystad, Netherlands) and tested using the method of example 1 in which CD8^+ CD25^hi T cell depleted PBMC were used to compare peptides derived from sTNFR-1 for the capacity to stimulate T cell responses from twenty healthy donors. Bulk cultures were established by adding 1 ml of 2-4×10^6/ml CD8^+ CD25^hi T cell depleted PBMC in AIM V culture medium to each well of a 24 well plate (Greiner Bio-One, Frickenhausen, Germany). Each peptide was tested separately against each donor by adding 1 ml 10 μM peptide to each bulk culture (final concentration of 5 μM for a 2 ml per bulk culture). For comparison, additional bulk cultures were established for untreated and positive (KLH) controls. Replicate samples (of T blasts) were removed from bulk cultures on days 6-9 and proliferation was assessed in 96 round bottom plates The data were used to assess the magnitude and kinetics of T cell responses to each peptide on days 6, 7, 8 and 9 post stimulation. […] The plates were washed with water, dried then spot counts analysed using the Immunospot Elispot analyzer, software version 3 (Cleveland, Ohio, USA). […]

[5] = system: autologous CD8^+ CD25^hi depleted CD4^+ T cells; assay: Proliferation assay, antigen-pulsed monocyte derived dendritic cells plus autologous CD8+ CD25hi depleted CD4+ T cells; type: cell-based, human; conditions: 44 μg/ml, DC pulsed 6 hours, 7 days, SI ≧2, p<0.05, FIG. 4
Experimental: (§1) Monocytes were isolated from PBMC by adherence to tissue culture plastic (>90% CD14^+) and were cultured in 24 well plates in AIM V medium with 5% heat inactivated human AB serum (Autogen Bioclear, Caine, Wiltshire, UK) (growth medium) at an approximate density of 1×10^6 per well (24 well plate). Monocytes were incubated in growth medium containing human IL-4 (Peprotech, Rocky Hill, N.J., USA) and GM-CSF (Peprotech, Rocky Hill, N.J., USA) for 3 days. On day 3, 44 μg/ml of Betaferon (Schering AG, Berlin, Germany) were added in 0.5 ml test buffer plus 3% heat inactivated human AB serum and 25 mM (final concentration) HEPES pH 8. Control wells containing 50 μg/ml KLH or no antigen (untreated cells) were incubated in 1 ml PBS+0.01% Tween 20 plus 3% heat inactivated human AB serum (standard buffer). DC were incubated with antigen for 6 hours after which DCs were washed 6 times to remove exogenous IFN beta. […]
(§2) On day 4, autologous CD8^+ CD25^hi depleted CD4^+ T cells were isolated by negative selection from PBMC (Dynal Human CD4^+ Negative Isolation Kit, Wirral, UK) and were then added to DCs at 1×10^5 per well in both proliferation and Elispot plates. Elispot plates were incubated for 6 days before developing (as in example 2) and proliferation plates were incubated for 7 days before proliferation was measured by incorporation of 3HTdR (a 6 hour pulse at 1 μCi/well). […]

[6] = system: autologous CD8^+ CD25^hi depleted CD4^+ T cells; assay: IL-2 Elispot assay, antigen-pulsed monocyte derived dendritic cells plus autologous CD8+ CD25hi depleted CD4+ T cells; type: cell-based, human; conditions: 44 μg/ml, DC pulsed 6 hours, 6 days, SI ≧2, p<0.05, FIG. 4
Experimental: as §1, §2

[7] = 5 μM peptide, donors 3, 8 and 11

CC(=O)N1c2ccccc2C=Cc2ccccc21 [N-acetyl iminostilbene]
donors stimulated, compared ([1]; 25 μg/ml, days 5-8, panel of healthy donors, SI≧2, p<0.05): fewer donors than carbamazepine

NC(=O)N1c2ccccc2C=Cc2ccccc21 [carbamazepine, Carbamazepine]
additional responses detected on days 6 and 7 ([1]; 25 μg/ml): one
day on which the majority of T cell responses are induced ([1]; 25 μg/ml, days 5-8): 5 days
delayed allergic responses in patients [2]: potent inducer of delayed allergic responses

GDKFVSWYQQGSGQS [compound 2]
detection of T cell epitopes after CD25^hi T cell depletion [3]: allowed detection of T cell epitopes

HLRHCLSCSKCRKEM [WT peptide]
donors giving responses, IL-2 Elispot assay [4]: three
peak proliferation responses, time [1, 7]: 7 days after peptide addition
score as a T cell epitope if proliferation measured at timepoints 8 or 9 days after peptide addition [1, 7]: negative
donors giving responses, proliferation assay ([1]; 5 μM peptide, twenty healthy donors, days 6-9, SI threshold of 2, p<0.05, donors 3, 8 and 11): three

PGQTATITCSGHALG [peptide 1]
detection of T cell epitopes after CD25^hi T cell depletion [3]: allowed detection of T cell epitopes

B1: mutant T cell epitope depleted protein: T cell epitope depleted human sTNFR1 Fc fusion protein with mutations I10Q, T20R, H23P, L56A, L108T, L110H and L149D (protein, UniProt P19438 30-211, looked up, variant I10Q T20R H23P L56A L108T L110H L149D)
extracellular domain: LVPHLGDREKRDSVCPQGKYQHPQNNSICCRKCPKGTYLYNDCPGPGQDTDCRECESGSFTASENHARHCLSCSKCRKEMGQVEISSCTVDRDTVCGCRKNQYRHYWSENLFQCFNCSTCHNGTVHLSCQEKQNTVCTCHAGFFLRENECVSCSNCKKSDECTKLCLPQIENVKGTEDSGTT
modifications: extracellular domain human Fc fusion
donors with significant T cell responses, proliferation assay ([1]; whole protein 10 μg/ml, timecourse, FIG. 3): not

B2: Betaferon: Betaferon (Schering AG), human interferon beta, an immunomodulatory protein (protein, UniProt P01574 22-187, looked up, variant C17S)
Interferon beta: MSYNLLGFLQRSSNFQSQKLLWQLNGRLEYCLKDRMNFDIPEEIKQLQQFQKEDAALTIYEMLQNIFAIFRQDSSSTGWNETIVENLLANVYHQINHLKTVLEEKLEKEDFTRGKLMSSLHLKRYYGRILHYLKAKEYSHCAWTIVRVEILRNFYFINRLTGYLRN
modifications: no N-terminal Met
notes: Betaferon (Schering AG), human interferon beta, an immunomodulatory protein
donors with significant T cell responses, proliferation assay [5]: 4 out of 29
donors with significant T cell responses, IL-2 Elispot assay [6]: 4 out of 29
